We go through 13 molecules from patent US20230303572A1, “18-MC SALT FORMS” (Mind Medicine, Inc., priority 2022, published 2023).

Series [1] concerns cocaine-seeking or "craving" behaviors. As to conditions: animal model; cited from earlier work.
In series [2] the test system is substance use models (nicotine, alcohol, morphine, cocaine and methamphetamine). As to conditions: animal studies; dosages as low as 10 mg/kg i.p.; cited from earlier work.
A short description of series [3]: Relative thermodynamic stability of HCl salt forms (desolvation and form conversion data). It counts as physicochemical. How it is done:
Starting from HCl salt materials with different forms, a total of 100 polymorph screening experiments was performed using different crystallization methods including salt formation by liquid vapor diffusion/slurry at elevated temperature, evaporation at RT/high temperatures, slurry and reverse anti-solvent addition at different temperatures, slow/crash cooling, polymer induced crystallization and grinding. All the resulting solids were isolated for XRPD test, and new forms were further characterized by TGA, DSC, ^1H NMR and HPLC/ IC.
An additional polymorph screening was performed for 18-MC HCl salt.

Series [4] is described as follows: Heating experiments and VT-XRPD (N2 drying, heating, cooling back): form change. It counts as physicochemical. As to conditions: for Form after heating: solid form by XRPD after heating, cells marked *, # have footnotes that are not shown; for form change after N2 drying (VT-XRPD): N2-drying for 20 min at 30° C.; for form conversion, summary statement: after desolvation. From the text:
(§1) For XRPD analysis, a PANalytical Empyrean and X′ Pert3 X-ray powder diffract meter was used.

A short description of series [5]: Physical form stability on storage at RT, air drying or exposure to ambient conditions (XRPD). The format is physicochemical.
Description: as §1

The mark [6] stands for this setting: solvates of HCl salt, form after desolvation.

Entries after “also recorded” stand apart in the source; their conditions may differ. Counter-ions that a name gives are not always drawn.

Take `COCC[C@H]1CC2CN3CCc4c([nH]c5ccccc45)[C@](C(=O)OC)(C2)[C@H]13` [18-MC, 18-methoxycoronaridine]: the “effect on cue-induced cocaine-seeking” value in series [1] was “attenuate effects of the environmental cues”. In addition, the “effect on drug self-administration” value in series [2] is listed as “significantly reduces drug self-administration”.

Take `COCC[C@H]1CC2CN3CCc4c([nH]c5ccccc45)[C@](C(=O)OC)(C2)[C@H]13` [HCl salt Type A, 18-methoxycoronaridine]: the “thermodynamic stability among HCl salt forms” value in series [3] (at RT) was “thermodynamically more stable than other anhydrates; also recorded: most thermodynamically stable form”. Also, the “thermodynamic stability among hydrochloride salt forms” value in series [3] (temperature not stated) was “most thermodynamically stable form”.

Regarding `COCC[C@H]1CC2CN3CCc4c([nH]c5ccccc45)[C@](C(=O)OC)(C2)[C@H]13` [HCl salt Type B, 18-methoxycoronaridine], the Form after desolvation entry in series [3] (setting [6]) is “HCl salt Type A”. The Form after heating entry in series [4] is “HCl salt Type A”.

Regarding `COCC[C@H]1CC2CN3CCc4c([nH]c5ccccc45)[C@](C(=O)OC)(C2)[C@H]13` [HCl salt Type C, 18-methoxycoronaridine], in series [3] (setting [6]), the Form after desolvation result is reported as “HCl salt Type A”. The Form after heating entry in series [4] is “HCl salt Type A”.

Consider `COCC[C@H]1CC2CN3CCc4c([nH]c5ccccc45)[C@](C(=O)OC)(C2)[C@H]13` [HCl salt Type I, 18-methoxycoronaridine], for which the Form after desolvation result in series [3] (setting [6]) is recorded as “HCl salt Type A”.

Consider `COCC[C@H]1CC2CN3CCc4c([nH]c5ccccc45)[C@](C(=O)OC)(C2)[C@H]13` [HCl salt Type M, 18-methoxycoronaridine], for which the Form after desolvation result in series [3] (RT storage or heat to 100° C. under N2) is “HCl salt Type A**”. For the same molecule, in series [4], the “form change after N2 drying (VT-XRPD)” value is on record as “no form change” and the “form conversion, summary statement” value is given as “converted to HCl salt Type A”. In series [4] (heating to 100° C.), the “form change after heating (XRPD/VT-XRPD)” value is recorded as “peaks of HCl salt Type A were observed”. For the same molecule, the “form change after heating (VT-XRPD)” value in series [4] (heating to 180° C. under N2 protection) was “most diffraction peaks were consistent with HCl salt Type A with extra peak similar to HCl salt Type K”. Also, in series [5] (storage at RT for ~3 days), the “form change after storage (XRPD)” value is on record as “extra peaks of HCl salt Type A”.

As for `COCC[C@H]1CC2CN3CCc4c([nH]c5ccccc45)[C@](C(=O)OC)(C2)[C@H]13` [HCl salt Type P, 18-methoxycoronaridine], the Form after desolvation result in series [3] (setting [6]) is given as “HCl salt Type A”. For the same molecule, in series [4], the “form change after N2 drying (VT-XRPD)” value was “no form change” and the “form conversion, summary statement” value is “converted to HCl salt Type A”. Besides, the “form change after heating (XRPD)” value in series [4] (heating to 80° C. and cooling back to RT) is “no obvious form change”. In addition, the “form change after heating (XRPD/VT-XRPD)” value in series [4] (heating to 100° C.) is “form change to HCl salt Type A”. For the same molecule, the “form change after heating (XRPD)” value in series [4] (heating to 150° C.) is “converted to HCl salt Type A”. Also, the “form change after heating (VT-XRPD)” value in series [4] (heating to 210° C. under N2 protection) is given as “amorphous sample was observed”.

In the case of `COCC[C@H]1CC2CN3CCc4c([nH]c5ccccc45)[C@](C(=O)OC)(C2)[C@H]13` [HCl salt Type Q, 18-methoxycoronaridine], the Form after desolvation entry in series [3] (setting [6]) is recorded as “HCl salt Type A+freebase Type A”. In series [4], the “form change after N2 drying (VT-XRPD)” value was “no form change” and the “form conversion, summary statement” value is given as “converted to HCl salt Type A”. Also, in series [4] (heating to 100° C., 130° C., 160° C. and cooling back to 30° C. under N2 protection), the “form change after heating (VT-XRPD)” value was “form change to a mixture of HCl salt Type A and freebase Type A”.

Regarding `COCC[C@H]1CC2CN3CCc4c([nH]c5ccccc45)[C@](C(=O)OC)(C2)[C@H]13` [HCl salt Type R, 18-methoxycoronaridine], in series [3] (setting [6]), the Form after desolvation result was “HCl salt Type A”. Also, the “form conversion, summary statement” value in series [4] is on record as “converted to HCl salt Type A”. Also, in series [4] (heating to 170° C. and cooling back to ambient condition), the “form change after heating (XRPD)” value is reported as “converted to HCl salt Type A”.

Consider `COCC[C@H]1CC2CN3CCc4c([nH]c5ccccc45)[C@](C(=O)OC)(C2)[C@H]13` [HCl salt Type S, 18-methoxycoronaridine], for which the Form after desolvation entry in series [3] (setting [6]) was “HCl salt Type A”. Moreover, the “form conversion, summary statement” value in series [4] is on record as “converted to HCl salt Type A”. Further, the “form change after heating (XRPD)” value in series [4] (heating to 150° C.) is recorded as “most diffraction peaks were consistent with HCl salt Type A”. The “change after air drying” value in series [5] (air drying at RT, time not stated) is on record as “turned to be gel like”.

With `COCC[C@H]1CC2CN3CCc4c([nH]c5ccccc45)[C@](C(=O)OC)(C2)[C@H]13` [HCl salt Type T, 18-methoxycoronaridine], in series [3] (setting [6]), the Form after desolvation result is reported as “HCl salt Type A”. For the same molecule, in series [4], the “form conversion, summary statement” value was “converted to HCl salt Type A”. Further, the “form change after heating (XRPD)” value in series [4] (heating to 150° C.) was “most diffraction peaks were consistent with HCl salt Type A”.

Consider `COCC[C@H]1CC2CN3CCc4c([nH]c5ccccc45)[C@](C(=O)OC)(C2)[C@H]13` [HCl salt Type U, 18-methoxycoronaridine], for which the Form after desolvation entry in series [3] (setting [6]) is recorded as “HCl salt Type A”. The “form conversion, summary statement” value in series [4] was “converted to HCl salt Type A”. In series [4] (heating to 120° C.), the “form change after heating (XRPD/VT-XRPD)” value is reported as “an extra peak representative of HCl salt Type A was observed”. In addition, the “form change after heating (XRPD)” value in series [4] (heating to 150° C.) is reported as “most diffraction peaks were consistent with HCl salt Type A”.

In the case of `COCC[C@H]1CC2CN3CCc4c([nH]c5ccccc45)[C@](C(=O)OC)(C2)[C@H]13` [tosylate Type D, 18-methoxycoronaridine], the “form change after heating (XRPD/VT-XRPD)” value in series [4] (heating to 100° C.) is given as “no form change”. Moreover, the “form change after heating (VT-XRPD)” value in series [4] (heating to 140° C. under N2 protection) was “an amorphous pattern was observed”. Further, the “form change after exposure to ambient conditions (XRPD)” value in series [5] (exposure to ambient conditions for ~30 min) was “converted to tosylate Type B”.
